Assay results published in ChEMBL document CHEMBL1201862, “PubChem BioAssay data set” (2004).
Calls of active or inactive are those of the source. Rule as the data show it, for most assays here: actives have a measured EC50 and inactives only a lower limit.

Experiments:
[1] = Luminescence Cell-Based Dose Confirmation HTS to Identify Inhibitors of Platelet Dense Granule Release. [Related pubchem assays: 1663 (Primary HTS), 1678 (Summary of Project)]; assay type: functional
[2] = target: Luciferin 4-monooxygenase (Photinus pyralis, UniProt P08659); test: firefly luciferase enzyme inhibitors, dose response, biochemical, luminescence (AID 1891)
[3] = target: Paired box protein Pax-8 (Homo sapiens, UniProt Q06710); test: inhibitors of PAX8-driven TPO luciferase reporter, dose response, RMG-I cells, cherry-pick (AID 687027); assay type: functional, cell-based;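 also: luciferase reporter driven by Pax8 target thyroperoxidase promoter measured by SteadyGlo luminescence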
[4] = NIH-3T3 fibroblast cytotoxicity, dose response, cytotoxicity control, cell-based, fluorescence, Alamar Blue, secondary assay (AID 2327); assay type: functional;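 also: NIH-3T3 mouse fibroblasts cultured with fluconazole at 8 µg/mL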
[5] = inhibitors of intracellular T. cruzi replication, confirmation, NIH3T3 host cells, beta-gal luminescence (AID 2044); assay type: functional, cell-based;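 also: intracellular parasites grown in NIH/3T3 mouse fibroblasts as host cells; luminescent beta-galactosidase reporter signal from transgenic T. cruzi replicating inside host cells; inhibitors lower the luminescence signal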
[6] = cytotoxicity toward NIH3T3 fibroblasts, dose response, counter-screen, cell-based, ATP luminescence, mouse fibroblasts (AID 2010); assay type: functional;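 also: cells exposed to compound for about 90 hours before reading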
[7] = C. albicans growth with fluconazole, confirmation, fluorescence, retest (AID 2467); assay type: functional, cell-based
[8] = target: T1, Protein RecA (Mycobacterium tuberculosis, UniProt P9WHJ3); test: Fluorescence Cell-Free Homogeneous Dose Retest to Identify Inhibitors of RecA-Intein Splicing Activity. [Related pubchem assays (depositor defined):AID2097, AID2223, AID489010, AID492950]; assay type: functional
T1 sequence (P9WHJ3 whole entry): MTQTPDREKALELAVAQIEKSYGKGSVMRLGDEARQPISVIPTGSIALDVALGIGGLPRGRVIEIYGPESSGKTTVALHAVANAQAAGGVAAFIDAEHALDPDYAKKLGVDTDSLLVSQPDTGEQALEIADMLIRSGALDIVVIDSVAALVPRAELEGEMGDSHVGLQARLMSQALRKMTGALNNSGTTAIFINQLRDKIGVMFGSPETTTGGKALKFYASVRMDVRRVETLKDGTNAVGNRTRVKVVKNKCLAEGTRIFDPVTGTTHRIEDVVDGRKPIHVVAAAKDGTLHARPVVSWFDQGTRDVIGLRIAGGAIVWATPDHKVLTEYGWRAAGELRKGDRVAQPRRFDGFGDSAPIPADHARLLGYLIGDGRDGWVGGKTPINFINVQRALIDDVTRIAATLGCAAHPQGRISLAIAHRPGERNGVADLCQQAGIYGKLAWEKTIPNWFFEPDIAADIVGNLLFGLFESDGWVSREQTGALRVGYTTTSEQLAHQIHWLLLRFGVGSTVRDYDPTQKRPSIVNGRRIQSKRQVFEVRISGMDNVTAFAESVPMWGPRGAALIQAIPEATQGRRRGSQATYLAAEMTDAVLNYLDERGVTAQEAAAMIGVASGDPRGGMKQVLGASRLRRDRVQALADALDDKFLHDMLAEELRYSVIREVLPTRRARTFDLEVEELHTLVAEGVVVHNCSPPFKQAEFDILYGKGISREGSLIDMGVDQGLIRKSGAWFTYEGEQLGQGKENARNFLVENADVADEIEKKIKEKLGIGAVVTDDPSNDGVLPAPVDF

[9] = target: T2, Replicative DNA helicase DnaB (Mycobacterium tuberculosis, UniProt P9WMR3); test: DnaB intein splicing inhibitors, dose response, biochemical, cell-free fluorescence (AID 449749); assay type: functional
T2 sequence (P9WMR3 whole entry): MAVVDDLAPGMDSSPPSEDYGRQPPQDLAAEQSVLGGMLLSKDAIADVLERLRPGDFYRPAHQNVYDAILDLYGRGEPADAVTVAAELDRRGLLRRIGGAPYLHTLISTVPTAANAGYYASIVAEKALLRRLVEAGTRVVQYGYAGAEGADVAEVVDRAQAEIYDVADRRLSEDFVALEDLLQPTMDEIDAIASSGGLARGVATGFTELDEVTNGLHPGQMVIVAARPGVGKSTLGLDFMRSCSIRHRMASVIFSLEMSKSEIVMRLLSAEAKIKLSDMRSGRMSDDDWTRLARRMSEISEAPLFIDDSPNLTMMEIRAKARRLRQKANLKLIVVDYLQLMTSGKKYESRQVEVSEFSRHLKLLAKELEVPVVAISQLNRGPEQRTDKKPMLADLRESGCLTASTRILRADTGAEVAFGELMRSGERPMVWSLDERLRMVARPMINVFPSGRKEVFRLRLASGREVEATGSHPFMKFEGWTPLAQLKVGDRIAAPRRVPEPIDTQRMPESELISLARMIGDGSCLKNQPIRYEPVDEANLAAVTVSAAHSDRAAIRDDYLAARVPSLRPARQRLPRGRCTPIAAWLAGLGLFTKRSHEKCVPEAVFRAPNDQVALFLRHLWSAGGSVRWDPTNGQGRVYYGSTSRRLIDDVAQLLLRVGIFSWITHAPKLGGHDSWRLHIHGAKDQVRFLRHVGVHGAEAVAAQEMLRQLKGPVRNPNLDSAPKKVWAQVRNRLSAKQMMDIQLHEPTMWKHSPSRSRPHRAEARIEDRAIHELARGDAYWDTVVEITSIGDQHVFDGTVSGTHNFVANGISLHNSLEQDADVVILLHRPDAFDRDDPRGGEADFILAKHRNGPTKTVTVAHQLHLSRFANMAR

[10] = target: T3, Corticotropin-releasing factor receptor 2/Corticotropin-releasing factor-binding protein (Homo sapiens, UniProt P24387+Q13324); test: activators of CRF receptor 2 with binding protein – uHTS hits, confirmation (AID 602473); assay type: functional; conditions: read-out: EC50_Mean
T3 sequence (Q13324 whole entry): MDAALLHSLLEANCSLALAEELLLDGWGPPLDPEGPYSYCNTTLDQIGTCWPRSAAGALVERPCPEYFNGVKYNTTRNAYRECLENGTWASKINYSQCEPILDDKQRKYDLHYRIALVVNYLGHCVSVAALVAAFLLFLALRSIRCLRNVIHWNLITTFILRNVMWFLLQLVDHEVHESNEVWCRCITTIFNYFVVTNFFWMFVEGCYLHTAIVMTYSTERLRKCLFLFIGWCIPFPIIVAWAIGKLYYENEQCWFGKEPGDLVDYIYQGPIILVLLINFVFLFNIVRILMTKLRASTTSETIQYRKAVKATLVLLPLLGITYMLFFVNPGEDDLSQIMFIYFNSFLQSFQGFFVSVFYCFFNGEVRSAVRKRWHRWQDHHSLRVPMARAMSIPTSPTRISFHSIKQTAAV
T3 sequence (P24387 whole entry): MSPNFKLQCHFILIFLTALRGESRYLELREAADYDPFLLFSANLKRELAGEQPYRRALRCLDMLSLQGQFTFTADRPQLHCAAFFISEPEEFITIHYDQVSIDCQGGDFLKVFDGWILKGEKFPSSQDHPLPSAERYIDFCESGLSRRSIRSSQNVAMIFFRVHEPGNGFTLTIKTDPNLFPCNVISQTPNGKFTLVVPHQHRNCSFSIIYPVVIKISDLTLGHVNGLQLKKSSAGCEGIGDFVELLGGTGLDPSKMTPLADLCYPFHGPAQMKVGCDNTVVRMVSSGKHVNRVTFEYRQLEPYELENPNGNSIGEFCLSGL

[11] = inhibitors of clade B AD8 Env fusion, dose response, cell-based, cherry-pick (AID 652062); assay type: functional;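 also: luciferase signal from cell-cell fusion driven by HIV-1 clade B AD8 Env; potency is for inhibitors of fusion seen as a drop in luminescence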
[12] = target: T4, Heat shock factor protein 1 (Mus musculus, UniProt P38532); test: HSF1 potentiators in luciferase reporter cells, confirmation, cell-based, NIH3T3, luminescence, dose retest (AID 435004); assay type: functional;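 also: stress induced by proteasome inhibitor MG132 added 30 min after compound; luciferase reporter driven by HSF1 response element in NIH3T3 cells; actives raise luminescence as potentiators of the MG132 stress response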
T4 sequence (P38532 whole entry): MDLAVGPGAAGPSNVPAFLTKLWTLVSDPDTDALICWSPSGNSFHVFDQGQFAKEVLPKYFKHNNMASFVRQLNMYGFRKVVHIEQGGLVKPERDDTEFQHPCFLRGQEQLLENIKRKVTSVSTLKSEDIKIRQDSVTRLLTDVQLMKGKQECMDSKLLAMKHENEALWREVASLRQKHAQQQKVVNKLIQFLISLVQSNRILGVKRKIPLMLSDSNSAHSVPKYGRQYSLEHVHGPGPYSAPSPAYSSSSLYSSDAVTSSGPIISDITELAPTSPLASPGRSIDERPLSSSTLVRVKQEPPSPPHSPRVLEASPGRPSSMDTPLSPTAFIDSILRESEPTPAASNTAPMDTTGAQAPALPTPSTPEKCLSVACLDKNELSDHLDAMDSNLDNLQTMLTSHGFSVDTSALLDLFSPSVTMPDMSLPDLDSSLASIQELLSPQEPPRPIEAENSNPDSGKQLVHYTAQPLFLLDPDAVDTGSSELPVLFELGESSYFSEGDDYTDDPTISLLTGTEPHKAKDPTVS

[13] = target: T5, Ubiquitin-conjugating enzyme E2 N (Homo sapiens, UniProt P61088); assay type: functional;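 also: Dose-response confirmation in a TR-FRET assay detecting UBC13-driven polyubiquitin chain formation, inhibition measured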
T5 sequence (P61088 whole entry): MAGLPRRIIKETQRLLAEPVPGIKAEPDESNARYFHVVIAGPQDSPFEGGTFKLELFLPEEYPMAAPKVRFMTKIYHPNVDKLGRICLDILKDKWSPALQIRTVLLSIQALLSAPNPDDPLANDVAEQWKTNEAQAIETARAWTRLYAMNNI

[14] = Shn3 3'UTR reporter inhibitors, dose response, cell-based, Clone20 osteoblasts, firefly luciferase, cherry-picked (AID 624132); assay type: functional;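 also: firefly luciferase luminescence from reporter carrying the Shn3 3'UTR in osteoblasts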
[15] = Luminescence Cell-Based Dose Retest to Confirm Inhibitors of Cancer Stem Cells. [Related pubchem assays (depositor defined):AID2717, AID2721]; assay type: functional; conditions: Homo sapiens

Chain of Luciferin 4-monooxygenase (P08659 whole entry): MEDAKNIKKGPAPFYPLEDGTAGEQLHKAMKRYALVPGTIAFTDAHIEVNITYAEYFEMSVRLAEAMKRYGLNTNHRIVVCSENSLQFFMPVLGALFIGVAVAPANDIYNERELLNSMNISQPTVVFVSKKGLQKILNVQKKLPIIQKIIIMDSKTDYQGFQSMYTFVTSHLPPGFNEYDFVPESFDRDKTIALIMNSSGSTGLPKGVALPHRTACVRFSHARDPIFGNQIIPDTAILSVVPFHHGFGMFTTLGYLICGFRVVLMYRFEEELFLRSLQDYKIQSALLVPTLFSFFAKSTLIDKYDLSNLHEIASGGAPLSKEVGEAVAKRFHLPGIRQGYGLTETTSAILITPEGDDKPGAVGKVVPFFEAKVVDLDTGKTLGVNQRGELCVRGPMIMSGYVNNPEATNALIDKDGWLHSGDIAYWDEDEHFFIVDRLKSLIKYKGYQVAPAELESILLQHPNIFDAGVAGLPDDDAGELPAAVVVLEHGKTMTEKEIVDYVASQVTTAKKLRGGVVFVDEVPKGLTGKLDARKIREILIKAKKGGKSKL
Chain of Paired box protein Pax-8 (Q06710 whole entry): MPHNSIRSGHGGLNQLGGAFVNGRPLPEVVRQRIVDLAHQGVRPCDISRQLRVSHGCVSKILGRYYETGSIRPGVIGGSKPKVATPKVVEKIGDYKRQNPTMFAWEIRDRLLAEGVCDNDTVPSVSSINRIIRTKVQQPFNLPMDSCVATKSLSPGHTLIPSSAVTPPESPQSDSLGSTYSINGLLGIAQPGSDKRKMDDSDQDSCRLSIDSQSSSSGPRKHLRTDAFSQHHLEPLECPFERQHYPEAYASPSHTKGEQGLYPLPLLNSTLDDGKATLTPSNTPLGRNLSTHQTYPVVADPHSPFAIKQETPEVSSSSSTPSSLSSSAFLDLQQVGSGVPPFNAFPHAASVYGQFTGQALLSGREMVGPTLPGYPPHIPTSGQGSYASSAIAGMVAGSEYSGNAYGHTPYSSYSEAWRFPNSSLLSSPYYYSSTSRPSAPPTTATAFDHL

SMILES: O=C(Nc1ccc(C(=O)N2CCN(c3ccc(Cl)cc3)CC2)cc1)C1=CSCCO1
- EC50 [1]: > 112 µM (not active)
- EC50 [2]: 31.2 µM (active)

SMILES: COC(=O)C1=C(c2ccc(F)cc2OCc2ccccc2)C[C@@H]2CC[C@H]1N2C(=O)NCc1ccc(C)cc1
- AC50 [3]: 15.1 µM (active)

SMILES: C/[N+]([O-])=C\c1ccc([N+](=O)[O-])o1
- EC50 [4]: > 160 µM (inactive)
- EC50 [5]: 0.54 µM (active)
- EC50 [6]: > 60 µM (not active)
- EC50 [7]: 0.885 µM (active)

SMILES: Cc1ccc(OCC(=O)N/N=C\c2c(C)[nH]n(-c3ccccc3)c2=O)c([N+](=O)[O-])c1
- EC50 [4]: > 150 µM (inactive)
- EC50 [7]: 6.77 µM (active)

SMILES: CC[n+]1ccc2cc(OC)c(OC)cc2c1Cc1ccc(OC)c(OC)c1
- EC50 [8]: > 380 µM (inactive)
- AC50 [9]: > 120 µM (inactive)

SMILES: CN(C)/C=N/c1nccc(-c2cccs2)n1
- EC50 [10]: > 53 µM (inactive)

SMILES: COc1nc2ccccc2nc1OC
- EC50 [1]: > 112 µM (not active)
- EC50 [2]: > 112 µM (not active)

SMILES: Nc1c(Cl)ncnc1N/N=C/c1cccc(O)c1
- EC50 [1]: 22 µM (active)
- EC50 [2]: 58.1 µM (active)

SMILES: COc1ccc(/C=C2/C(=O)N(c3cccc(F)c3)N=C2C)c(OC)c1
- EC50 [8]: 44.6 µM (active)
- AC50 [9]: 4.14 µM (active)

SMILES: Cc1ccc(-n2nc(C)c(/C=N/NC(=O)c3ccc([N+](=O)[O-])cc3)c2O)c(C)c1
- EC50 [4]: 11.7 µM (active)
- EC50 [8]: 21.2 µM (active)
- AC50 [9]: 6.38 µM (active)
- EC50 [7]: 1.71 µM (active)

SMILES: COc1cc2c(cc1OC)C(c1c(Cl)cccc1Cl)NC(=O)C2 (configuration not stated)
- EC50 [10]: 10.9 µM (active)

SMILES: Cc1ccc2nc(Cl)c3nnnn3c2c1
- EC50 [4]: 4.94 µM (inconclusive)
- EC50 [7]: 0.646 µM (active)

SMILES: CC1=NN(C)C(=O)C1Cc1c(F)cccc1Cl (configuration not stated)
- EC50 [8]: 0.74 µM (active)
- AC50 [9]: 5.39 µM (active)

SMILES: CN(C)Cc1cn(CC[C@@H]2CC[C@H](N)[C@H](CO)O2)nn1
- AC50 [11]: 22.9 µM (active)

SMILES: C/C(CC(=O)Nc1ccc(Cl)cn1)=N\NC(=O)Cc1cccs1
- EC50 [8]: 5.12 µM (active)
- AC50 [9]: 30.5 µM (active)

SMILES: OC(CNCc1cccc(Cl)c1)c1ccccc1 (configuration not stated)
- EC50 [1]: 21.2 µM (active)
- EC50 [2]: > 112 µM (not active)
- EC50 [12]: > 260 µM (inactive)

SMILES: Oc1ccc(C2=NN=C(NCc3ccc4c(c3)OCO4)SC2)c(O)c1
- IC50 [13]: > 20 µM (inactive)

SMILES: Cc1c(CCOC(=O)CC23CC4CC(CC(C4)C2)C3)sc[n+]1CC(=O)c1ccc(Br)cc1
- AC50 [14]: 12.9 µM (active)
- IC50 [13]: > 20 µM (inactive)
- AC50 [15]: 2.42 µM (active)

SMILES: Cn1c(SCC(=O)NCC2CCCO2)ncc(C(=O)Nc2ccccc2)c1=O (configuration not stated)
- EC50 [8]: 3.38 µM (active)
- AC50 [9]: 28 µM (active)

SMILES: CC1(C)CC(=O)C=C(Nc2ccc3c(c2)OCCO3)C1
- EC50 [1]: 11 µM (active)
- EC50 [2]: > 112 µM (not active)

SMILES: COc1ccccc1NS(=O)(=O)c1cc(NC(=O)CCC(=O)c2cccs2)ccc1Cl
- EC50 [4]: 123 µM (active)
- EC50 [7]: 0.417 µM (active)

SMILES: COc1ccc(C(=O)n2nnc3ccccc32)cc1Br
- EC50 [8]: 30 µM (active)
- AC50 [9]: 24.6 µM (active)

SMILES: O=C(CSc1cccc[n+]1[O-])CSc1cccc[n+]1[O-]
- EC50 [4]: > 160 µM (inactive)
- EC50 [5]: 6.09 µM (active)
- EC50 [6]: > 30 µM (not active)
- EC50 [7]: 3.9 µM (active)

SMILES: CCN(C[C@H]1N[C@@](Cc2ccccc2)(C(=O)OC)[C@H]2C(=O)N(Cc3ccccc3)C(=O)[C@@H]12)C(=O)C1CCCCC1
- EC50 [10]: 5.33 µM (active)

SMILES: Oc1ccc2ccccc2c1CNc1ccccn1
- IC50 [13]: > 20 µM (inactive)

SMILES: O=S(=O)(Nc1ccc(-c2ccc(N3CCOCC3)nn2)cc1)c1ccc(Cl)c(Cl)c1
- EC50 [1]: > 112 µM (not active)
- EC50 [2]: 35.3 µM (active)

SMILES: CCN(CC)CC(=O)n1c2c(c3ccccc31)CCCC2
- EC50 [1]: > 112 µM (not active)
- EC50 [2]: > 112 µM (not active)

SMILES: Cc1cccc(OCC(=O)Oc2ccc(Cl)cc2)c1
- EC50 [8]: 35.1 µM (active)
- AC50 [9]: 9.75 µM (active)
